These are literature values, as cited in publication PMC9065038 (Scientific Reports, 2022).

For series [1] the following is noted: constipation, respiratory depression.
For series [2] the following is noted: in vivo.
The conditions of series [3]: in vivo. The source holds these as a separate data set.
Details of series [4]: method as in PMID 28635181. Conditions: rats.
Series [5] addresses NOP receptor (S346, S351, T362/S363) (Homo sapiens, UniProt P41146).

NOP receptor (S346, S351, T362/S363), sequence (P41146 whole entry): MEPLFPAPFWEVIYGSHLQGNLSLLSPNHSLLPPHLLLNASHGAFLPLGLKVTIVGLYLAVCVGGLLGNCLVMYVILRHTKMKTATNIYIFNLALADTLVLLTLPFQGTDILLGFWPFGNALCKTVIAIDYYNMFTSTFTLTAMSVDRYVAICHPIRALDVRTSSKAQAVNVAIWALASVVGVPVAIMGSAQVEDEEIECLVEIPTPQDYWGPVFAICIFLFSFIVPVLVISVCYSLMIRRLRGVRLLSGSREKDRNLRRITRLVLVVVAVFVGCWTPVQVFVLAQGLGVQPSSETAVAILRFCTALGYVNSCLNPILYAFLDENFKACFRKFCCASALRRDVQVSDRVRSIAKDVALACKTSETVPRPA

Consider `COc1ccsc1CNCC[C@@]1(c2ccccn2)CCOC2(CCCC2)C1` [TRV130], for which the “side-effects in clinical trials” value in series [1] is “failed to produce therapeutic results devoid of side-effects”.

Take `CC(C)[C@H]1CC[C@@H](N2CCC3(CC2)C(=O)N(CCNS(N)(=O)=O)Cc2ccccc23)CC1` [AT-121]: in series [2], the “reinforcing effects or physical dependence” value is “devoid of reinforcing effects or physical dependence” and the tolerance development result is given as “significantly lower tolerance development”. For the same compound, the “anti-nociceptive and anti-hyperalgesic effects” value in series [3] is “potent anti-nociceptive and anti-hyperalgesic effects”. `CCC1C(=O)N(C2CCN(CCC(c3ccccc3)c3ccccc3)CC2)c2ccccc21` (stereo not drawn) [AT-034]: the cocaine self-administration entry in series [4] is listed as “significantly reduce cocaine self-administration”. Turning to buprenorphine, the “NOP phosphorylation profile (in words)” value in series [5] was “none at NOP”.
